Experiment [1] has as its target Tyrosine-protein kinase ABL1 (Homo sapiens) (UniProt P00519). As to the kind of experiment: Residual activity of wild type ABL1 at 0.1 uM by microplate scintillation counting.
Experiment [2] relates to Serine/threonine-protein kinase B-raf (Homo sapiens), P15056 [V600E]. Put plainly: Residual activity of B-RAF V600E mutant at 1 uM by microplate scintillation counting.
Experiment [3] deals with Serine/threonine-protein kinase PAK 4 (Homo sapiens) (UniProt O96013). As to the kind of experiment: Residual activity of PAK4 at 0.1 uM by microplate scintillation counting.
Experiment [4] has as its target T1, Serine/threonine-protein kinase BRSK1 (Homo sapiens) (UniProt Q8TDC3).
T1 sequence (whole entry): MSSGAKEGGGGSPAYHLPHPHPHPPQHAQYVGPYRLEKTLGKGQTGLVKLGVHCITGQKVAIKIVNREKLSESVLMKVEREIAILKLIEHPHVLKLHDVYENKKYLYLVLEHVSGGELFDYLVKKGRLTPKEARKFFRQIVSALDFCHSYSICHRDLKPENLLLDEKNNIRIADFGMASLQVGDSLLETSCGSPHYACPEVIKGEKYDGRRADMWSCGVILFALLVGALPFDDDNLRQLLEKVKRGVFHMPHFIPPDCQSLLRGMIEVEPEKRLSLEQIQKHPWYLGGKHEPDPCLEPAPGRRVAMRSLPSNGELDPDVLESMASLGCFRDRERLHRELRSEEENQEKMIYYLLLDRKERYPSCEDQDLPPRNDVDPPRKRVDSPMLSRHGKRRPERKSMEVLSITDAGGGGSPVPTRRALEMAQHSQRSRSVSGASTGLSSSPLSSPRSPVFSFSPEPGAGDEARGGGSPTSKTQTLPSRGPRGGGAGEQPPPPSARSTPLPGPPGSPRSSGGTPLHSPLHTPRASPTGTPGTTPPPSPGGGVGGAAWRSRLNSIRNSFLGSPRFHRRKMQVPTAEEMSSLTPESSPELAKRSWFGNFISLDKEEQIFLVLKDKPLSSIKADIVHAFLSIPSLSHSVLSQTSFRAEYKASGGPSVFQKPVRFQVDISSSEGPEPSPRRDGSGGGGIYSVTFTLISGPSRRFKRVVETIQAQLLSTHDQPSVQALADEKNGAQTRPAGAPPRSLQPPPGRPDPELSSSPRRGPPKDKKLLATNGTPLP
As to the kind of experiment: Residual activity of BRSK1 at 1 uM by microplate scintillation counting.

The target in experiment [5] is Cyclin-dependent kinase 4/cyclin D1 (Homo sapiens) (UniProt P11802+P24385). Put plainly: Residual activity of CDK4/Cyclin D1 at 1 uM by microplate scintillation counting. The experiment is classed as protein-complex assay.
The target of experiment [6] is T2, Inhibitor of nuclear factor kappa-B kinase subunit alpha (Homo sapiens) (UniProt O15111).
T2 sequence (whole entry): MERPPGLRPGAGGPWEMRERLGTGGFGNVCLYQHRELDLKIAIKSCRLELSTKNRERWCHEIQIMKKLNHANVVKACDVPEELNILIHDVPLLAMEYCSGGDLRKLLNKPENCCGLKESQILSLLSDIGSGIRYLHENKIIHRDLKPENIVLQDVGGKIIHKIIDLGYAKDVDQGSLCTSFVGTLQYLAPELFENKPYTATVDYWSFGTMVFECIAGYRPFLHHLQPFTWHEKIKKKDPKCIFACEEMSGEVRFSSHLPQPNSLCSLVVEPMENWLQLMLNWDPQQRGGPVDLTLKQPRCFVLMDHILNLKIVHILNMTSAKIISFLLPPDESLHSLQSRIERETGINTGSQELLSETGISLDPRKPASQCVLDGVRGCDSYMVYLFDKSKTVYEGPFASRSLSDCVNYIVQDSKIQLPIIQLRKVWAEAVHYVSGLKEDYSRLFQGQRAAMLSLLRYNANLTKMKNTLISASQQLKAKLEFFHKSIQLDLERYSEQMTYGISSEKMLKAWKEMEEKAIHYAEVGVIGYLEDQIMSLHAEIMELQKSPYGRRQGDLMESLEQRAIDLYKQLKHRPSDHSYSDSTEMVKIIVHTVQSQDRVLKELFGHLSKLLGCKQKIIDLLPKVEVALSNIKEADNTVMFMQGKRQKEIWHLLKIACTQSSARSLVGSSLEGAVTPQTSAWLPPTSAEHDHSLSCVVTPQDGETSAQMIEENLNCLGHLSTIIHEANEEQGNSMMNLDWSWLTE
As to the kind of experiment: Residual activity of IKKalpha at 1 uM by microplate scintillation counting.

In experiment [7] the target is T3, Ephrin type-A receptor 8 (Homo sapiens) (UniProt P29322).
T3 sequence (whole entry): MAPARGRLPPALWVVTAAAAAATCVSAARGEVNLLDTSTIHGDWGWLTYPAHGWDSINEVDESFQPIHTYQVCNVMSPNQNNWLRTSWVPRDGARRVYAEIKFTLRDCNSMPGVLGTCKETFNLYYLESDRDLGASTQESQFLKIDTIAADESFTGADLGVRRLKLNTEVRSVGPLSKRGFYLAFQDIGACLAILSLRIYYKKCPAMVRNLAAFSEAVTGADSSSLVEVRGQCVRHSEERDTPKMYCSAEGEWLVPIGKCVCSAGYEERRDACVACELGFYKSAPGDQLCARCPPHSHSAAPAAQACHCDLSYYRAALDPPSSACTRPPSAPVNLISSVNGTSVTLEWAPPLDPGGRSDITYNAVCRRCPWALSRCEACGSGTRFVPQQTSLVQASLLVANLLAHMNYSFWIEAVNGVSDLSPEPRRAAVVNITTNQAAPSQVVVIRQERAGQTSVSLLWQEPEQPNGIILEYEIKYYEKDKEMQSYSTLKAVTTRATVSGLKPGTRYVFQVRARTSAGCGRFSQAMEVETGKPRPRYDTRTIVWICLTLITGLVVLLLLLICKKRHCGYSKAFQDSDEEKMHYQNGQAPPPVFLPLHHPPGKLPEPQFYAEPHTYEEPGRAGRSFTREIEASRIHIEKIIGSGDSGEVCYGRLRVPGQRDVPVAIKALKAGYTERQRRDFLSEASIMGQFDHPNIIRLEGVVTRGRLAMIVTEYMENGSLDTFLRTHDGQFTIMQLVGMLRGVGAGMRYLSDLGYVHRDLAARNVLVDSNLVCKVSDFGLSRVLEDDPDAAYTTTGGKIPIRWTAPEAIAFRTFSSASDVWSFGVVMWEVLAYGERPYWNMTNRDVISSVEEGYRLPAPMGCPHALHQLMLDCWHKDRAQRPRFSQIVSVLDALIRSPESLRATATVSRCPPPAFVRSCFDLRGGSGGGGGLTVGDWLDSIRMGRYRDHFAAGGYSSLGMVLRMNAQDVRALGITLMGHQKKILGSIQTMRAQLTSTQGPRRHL
Put plainly: Residual activity of EPHA8 at 1 uM by microplate scintillation counting.

In experiment [8] the target is PAS domain-containing serine/threonine-protein kinase (Homo sapiens) (UniProt Q96RG2). Put plainly: Residual activity of PASK at 10 uM by microplate scintillation counting.
In experiment [9] the target is Vascular endothelial growth factor receptor 1 (Homo sapiens) (UniProt P17948). Put plainly: Residual activity of VEGFR1 at 1 uM by microplate scintillation counting.

Each structure is given as a SMILES string.

For orientation: residual activity means the signal under treatment as a percentage of the control signal.

Sequence of Serine/threonine-protein kinase B-raf (Homo sapiens), P15056 [V600E] (P15056 whole entry V600E): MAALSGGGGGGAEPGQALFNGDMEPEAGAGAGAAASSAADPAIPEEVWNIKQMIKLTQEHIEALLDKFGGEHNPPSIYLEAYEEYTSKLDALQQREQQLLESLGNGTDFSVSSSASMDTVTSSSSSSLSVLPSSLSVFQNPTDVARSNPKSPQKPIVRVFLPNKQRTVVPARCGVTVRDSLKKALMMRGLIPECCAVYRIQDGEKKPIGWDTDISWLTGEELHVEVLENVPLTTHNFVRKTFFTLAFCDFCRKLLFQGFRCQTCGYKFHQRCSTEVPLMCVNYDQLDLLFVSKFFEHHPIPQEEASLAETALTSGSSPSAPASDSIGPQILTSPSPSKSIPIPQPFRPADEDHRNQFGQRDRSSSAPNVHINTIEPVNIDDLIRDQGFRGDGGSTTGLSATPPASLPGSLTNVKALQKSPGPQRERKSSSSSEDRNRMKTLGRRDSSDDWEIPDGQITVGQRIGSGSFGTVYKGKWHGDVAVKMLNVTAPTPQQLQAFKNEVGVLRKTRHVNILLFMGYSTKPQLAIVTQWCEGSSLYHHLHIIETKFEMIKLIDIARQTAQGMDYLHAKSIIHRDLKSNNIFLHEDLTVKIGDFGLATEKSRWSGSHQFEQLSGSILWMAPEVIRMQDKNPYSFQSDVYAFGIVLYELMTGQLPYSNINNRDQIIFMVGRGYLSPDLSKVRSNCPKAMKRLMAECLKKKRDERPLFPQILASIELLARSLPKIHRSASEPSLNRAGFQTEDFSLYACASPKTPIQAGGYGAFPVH
Sequence of Serine/threonine-protein kinase PAK 4 (Homo sapiens) (O96013 whole entry, looked up): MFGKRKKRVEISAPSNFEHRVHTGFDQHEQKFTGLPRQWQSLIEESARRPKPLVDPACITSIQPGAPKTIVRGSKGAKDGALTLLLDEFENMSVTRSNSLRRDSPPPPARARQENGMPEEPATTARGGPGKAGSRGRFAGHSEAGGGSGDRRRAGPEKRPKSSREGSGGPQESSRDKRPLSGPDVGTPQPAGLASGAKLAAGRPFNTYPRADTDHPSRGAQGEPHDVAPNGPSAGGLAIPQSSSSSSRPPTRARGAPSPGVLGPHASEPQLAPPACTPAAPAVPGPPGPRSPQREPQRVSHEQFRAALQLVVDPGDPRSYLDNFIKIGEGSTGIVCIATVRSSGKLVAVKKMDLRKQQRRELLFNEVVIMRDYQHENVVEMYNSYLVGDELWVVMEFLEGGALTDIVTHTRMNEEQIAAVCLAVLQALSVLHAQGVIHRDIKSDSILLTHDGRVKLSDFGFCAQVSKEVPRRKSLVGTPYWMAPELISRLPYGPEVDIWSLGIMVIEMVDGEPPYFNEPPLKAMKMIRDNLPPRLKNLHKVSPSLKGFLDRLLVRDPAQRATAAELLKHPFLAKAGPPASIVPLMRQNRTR
Sequence of Tyrosine-protein kinase ABL1 (Homo sapiens) (P00519 whole entry): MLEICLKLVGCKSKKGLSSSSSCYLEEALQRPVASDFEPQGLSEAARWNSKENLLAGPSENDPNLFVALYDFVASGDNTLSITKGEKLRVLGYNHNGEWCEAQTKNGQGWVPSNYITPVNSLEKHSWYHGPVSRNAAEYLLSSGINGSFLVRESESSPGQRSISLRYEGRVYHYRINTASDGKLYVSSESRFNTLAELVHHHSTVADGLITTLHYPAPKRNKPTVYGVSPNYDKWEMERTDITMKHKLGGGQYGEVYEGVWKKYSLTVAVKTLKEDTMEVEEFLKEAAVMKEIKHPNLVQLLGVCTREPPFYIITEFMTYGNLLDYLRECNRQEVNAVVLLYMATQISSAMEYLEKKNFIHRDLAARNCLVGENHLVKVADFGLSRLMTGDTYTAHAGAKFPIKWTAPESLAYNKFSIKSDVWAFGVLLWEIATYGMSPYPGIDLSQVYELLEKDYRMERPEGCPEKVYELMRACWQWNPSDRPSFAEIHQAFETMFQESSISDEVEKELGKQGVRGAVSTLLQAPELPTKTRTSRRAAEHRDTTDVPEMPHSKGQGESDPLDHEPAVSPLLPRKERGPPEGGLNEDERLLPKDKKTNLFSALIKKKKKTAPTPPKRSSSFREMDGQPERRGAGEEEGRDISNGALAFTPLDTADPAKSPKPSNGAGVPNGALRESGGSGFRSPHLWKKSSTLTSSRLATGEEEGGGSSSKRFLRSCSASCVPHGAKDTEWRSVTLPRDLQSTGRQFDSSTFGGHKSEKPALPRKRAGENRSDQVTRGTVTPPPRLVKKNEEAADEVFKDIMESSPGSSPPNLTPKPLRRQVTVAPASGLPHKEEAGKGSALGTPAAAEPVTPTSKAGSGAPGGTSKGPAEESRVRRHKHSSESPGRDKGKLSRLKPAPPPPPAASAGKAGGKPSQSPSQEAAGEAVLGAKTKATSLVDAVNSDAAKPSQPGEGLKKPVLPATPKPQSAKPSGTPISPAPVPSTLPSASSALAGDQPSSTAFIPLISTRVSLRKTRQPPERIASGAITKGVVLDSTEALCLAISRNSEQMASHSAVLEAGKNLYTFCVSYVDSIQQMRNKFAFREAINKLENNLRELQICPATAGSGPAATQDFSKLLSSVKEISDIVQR
Sequence of Vascular endothelial growth factor receptor 1 (Homo sapiens) (P17948 whole entry): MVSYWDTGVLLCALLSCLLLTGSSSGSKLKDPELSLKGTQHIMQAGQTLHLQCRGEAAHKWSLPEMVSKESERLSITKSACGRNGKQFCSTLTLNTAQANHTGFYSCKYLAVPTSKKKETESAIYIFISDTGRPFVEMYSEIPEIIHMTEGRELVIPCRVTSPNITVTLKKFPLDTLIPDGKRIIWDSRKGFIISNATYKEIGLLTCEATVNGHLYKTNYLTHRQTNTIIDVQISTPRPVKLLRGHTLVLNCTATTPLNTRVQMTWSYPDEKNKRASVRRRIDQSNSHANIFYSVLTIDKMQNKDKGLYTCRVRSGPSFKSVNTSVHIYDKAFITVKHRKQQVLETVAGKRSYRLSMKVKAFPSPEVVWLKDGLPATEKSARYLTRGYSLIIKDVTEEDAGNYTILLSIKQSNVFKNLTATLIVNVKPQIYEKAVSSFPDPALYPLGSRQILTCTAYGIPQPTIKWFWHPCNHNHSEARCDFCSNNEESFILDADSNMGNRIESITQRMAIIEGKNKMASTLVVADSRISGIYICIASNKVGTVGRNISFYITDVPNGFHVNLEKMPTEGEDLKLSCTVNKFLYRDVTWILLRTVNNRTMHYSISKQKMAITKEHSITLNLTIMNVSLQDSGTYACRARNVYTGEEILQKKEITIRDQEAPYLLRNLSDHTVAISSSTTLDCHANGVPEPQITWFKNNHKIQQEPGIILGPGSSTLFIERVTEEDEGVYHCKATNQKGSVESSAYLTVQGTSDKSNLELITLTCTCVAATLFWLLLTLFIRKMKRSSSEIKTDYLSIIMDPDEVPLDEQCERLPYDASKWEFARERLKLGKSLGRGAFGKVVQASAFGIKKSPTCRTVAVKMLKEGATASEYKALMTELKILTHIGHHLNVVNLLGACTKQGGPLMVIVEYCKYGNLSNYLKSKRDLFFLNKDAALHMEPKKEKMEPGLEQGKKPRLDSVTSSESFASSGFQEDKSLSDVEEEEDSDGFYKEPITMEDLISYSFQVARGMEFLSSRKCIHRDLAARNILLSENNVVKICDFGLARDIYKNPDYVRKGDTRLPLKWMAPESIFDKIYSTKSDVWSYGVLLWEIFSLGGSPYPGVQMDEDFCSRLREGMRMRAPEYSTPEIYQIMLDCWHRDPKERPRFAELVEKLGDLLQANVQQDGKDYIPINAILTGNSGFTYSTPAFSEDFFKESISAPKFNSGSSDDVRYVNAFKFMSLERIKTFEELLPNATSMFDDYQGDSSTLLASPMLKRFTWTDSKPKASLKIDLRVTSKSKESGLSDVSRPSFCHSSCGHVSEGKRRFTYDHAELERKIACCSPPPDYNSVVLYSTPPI

Consider `COc1cc2c(Oc3ccc(-c4nc5ccccc5s4)cc3)ncnc2cc1OCCCN1CCN(C)CC1`, for which the residual activity in [1] is 94%; in [2] it was 86%; in experiment [3], 102%; in [4], 91%; in experiment [5], 100%; in experiment [6] it was 98%. The residual activity in [7] is 123%; in experiment [8], 96%; in [9], 75%.
For the molecule `COc1cc2c(Oc3ccc(-c4nc5ccccc5s4)cc3)ncnc2cc1OCCCN1CCCC1`, the residual activity in [1] worked out at 97%; in experiment [2] it was 83%; in experiment [3], 96%; in experiment [4] it was 91%; in [5], 98%; in experiment [6], 95%. Besides, the residual activity was 147% in experiment [7], 83% in experiment [8] and 74% in experiment [9].
Take `COc1cc2c(Oc3ccc(-c4nc5ccccc5s4)cc3F)ncnc2cc1OCCCN1CCN(C)CC1`: the residual activity in experiment [1] turned out to be 100%; in [2], 79%; in [3], 99%; in [4], 91%; in experiment [5] it was 94%; in [6] it was 99%. Further, the values for the residual activity in [7], in [8] and in experiment [9] were 149%, 79% and 74%, respectively.

For the origin of these results see ChEMBL document CHEMBL1152560, “Substituted 2-arylbenzothiazoles as kinase inhibitors: hit-to-lead optimization” (Bioorg Med Chem, 2009).
